From ChEMBL document CHEMBL1151757, “Synthesis, radiosynthesis, and biological evaluation of fluorine-18-labeled 2beta-carbo(fluoroalkoxy)-3beta-(3'-((Z)-2-haloethenyl)phenyl)nortropanes: candidate radioligands for in vivo imaging of the serotonin transporter with positron emission tomography” (J Med Chem, 2008)

Assays:
[1] = Ratio of drug uptake in midbrain to cerebellum in anesthetized cynomolgus monkey after 125 mins postinjection; format: ADME, organism-based, Macaca fascicularis; details: in vivo
[2] = Octanol-water partition coefficient, log P at pH 7.4 by shake-flask method; format: physicochemical
Putamen [3] = assay: Drug uptake in anesthetized cynomolgus monkey brain putamen after 145 mins postinjection; format: ADME, organism-based, Macaca fascicularis; details: in vivo
[4] = Drug uptake in anesthetized cynomolgus monkey brain cerebellum after 235 mins postinjection; format: ADME, organism-based, Macaca fascicularis; details: in vivo
Pons [5] = assay: Drug uptake in anesthetized cynomolgus monkey brain pons after 45 mins postinjection; format: ADME, organism-based, Macaca fascicularis; details: in vivo, 0.75 h
Medulla [6] = assay: Drug uptake in anesthetized cynomolgus monkey brain medulla after 3.5 mins postinjection; format: ADME, organism-based, Macaca fascicularis; details: in vivo
[7] = Ratio of drug uptake in putamen to cerebellum in anesthetized cynomolgus monkey after 3.5 mins postinjection; format: ADME, organism-based, Macaca fascicularis; details: in vivo
[8] = Drug uptake in anesthetized cynomolgus monkey brain frontal lobe after 18.5 mins postinjection; format: ADME, organism-based, Macaca fascicularis; details: in vivo
[9] = Drug uptake in anesthetized cynomolgus monkey brain cerebellum after 6.5 mins postinjection; format: ADME, organism-based, Macaca fascicularis; details: in vivo
[10] = Ratio of drug uptake in pons to cerebellum in anesthetized cynomolgus monkey after 125 mins postinjection; format: ADME, organism-based, Macaca fascicularis; details: in vivo
[11] = Drug uptake in anesthetized cynomolgus monkey brain frontal lobe after 22.5 mins postinjection; format: ADME, organism-based, Macaca fascicularis; details: in vivo, 0.375 h
[12] = Ratio of drug uptake in caudate to cerebellum in anesthetized cynomolgus monkey after 135 mins postinjection; format: ADME, organism-based, Macaca fascicularis; details: in vivo, 2.25 h
Thalamus [13] = assay: Drug uptake in anesthetized cynomolgus monkey brain thalamus after 45 mins postinjection; format: ADME, organism-based, Macaca fascicularis; design: unit not given here; details: in vivo, 0.75 h
Thalamus [14] = assay: Drug uptake in anesthetized cynomolgus monkey brain thalamus after 225 mins postinjection; format: ADME, organism-based, Macaca fascicularis; design: unit not given here; details: in vivo, 3.75 h
Putamen [15] = assay: Drug uptake in anesthetized cynomolgus monkey brain putamen after 65 mins postinjection; format: ADME, organism-based, Macaca fascicularis; design: unit not given here; details: in vivo
[16] = Ratio of drug uptake in caudate to cerebellum in anesthetized cynomolgus monkey after 225 mins postinjection; format: ADME, organism-based, Macaca fascicularis; details: in vivo, 3.75 h
Thalamus [17] = assay: Drug uptake in anesthetized cynomolgus monkey brain thalamus after 75 mins postinjection; format: ADME, organism-based, Macaca fascicularis; design: unit not given here; details: in vivo, 1.25 h
Pons [18] = assay: Drug uptake in anesthetized cynomolgus monkey brain pons after 35 mins postinjection; format: ADME, organism-based, Macaca fascicularis; details: in vivo
Putamen [19] = assay: Drug uptake in anesthetized cynomolgus monkey brain putamen after 95 mins postinjection; format: ADME, organism-based, Macaca fascicularis; design: unit not given here; details: in vivo
Midbrain [20] = assay: Drug uptake in anesthetized cynomolgus monkey brain midbrain after 75 mins postinjection; format: ADME, organism-based, Macaca fascicularis; design: unit not given here; details: in vivo, 1.25 h
[21] = Ratio of drug uptake in frontal lobe to cerebellum in anesthetized cynomolgus monkey after 145 mins postinjection; format: ADME, organism-based, Macaca fascicularis; details: in vivo
Caudate [22] = assay: Drug uptake in anesthetized cynomolgus monkey brain caudate after 105 mins postinjection; format: ADME, organism-based, Macaca fascicularis, Caudate nucleus; details: in vivo, 1.75 h
[23] = Drug uptake in anesthetized cynomolgus monkey brain frontal lobe after 27.5 mins postinjection; format: ADME, organism-based, Macaca fascicularis; details: in vivo
[24] = Drug uptake in anesthetized cynomolgus monkey brain cerebellum after 215 mins postinjection; format: ADME, organism-based, Macaca fascicularis; details: in vivo
Caudate [25] = assay: Drug uptake in anesthetized cynomolgus monkey brain caudate after 225 mins postinjection; format: ADME, organism-based, Macaca fascicularis, Caudate nucleus; details: in vivo, 3.75 h
Thalamus [26] = assay: Drug uptake in anesthetized cynomolgus monkey brain thalamus after 1.5 mins postinjection; format: ADME, organism-based, Macaca fascicularis; details: in vivo, 0.025 h
[27] = Ratio of drug uptake in putamen to cerebellum in anesthetized cynomolgus monkey after 0.5 mins postinjection; format: ADME, organism-based, Macaca fascicularis; details: in vivo
Midbrain [28] = assay: Drug uptake in anesthetized cynomolgus monkey brain midbrain after 1.5 mins postinjection; format: ADME, organism-based, Macaca fascicularis; design: unit not given here; details: in vivo, 0.025 h
[29] = Drug uptake in anesthetized cynomolgus monkey brain frontal lobe after 145 mins postinjection; format: ADME, organism-based, Macaca fascicularis; details: in vivo
[30] = Ratio of drug uptake in occipital lobe to cerebellum in anesthetized cynomolgus monkey after 135 mins postinjection; format: ADME, organism-based, Macaca fascicularis; details: in vivo, 2.25 h
[31] = Drug uptake in anesthetized cynomolgus monkey brain frontal lobe after 55 mins postinjection; format: ADME, organism-based, Macaca fascicularis; details: in vivo
Medulla [32] = assay: Drug uptake in anesthetized cynomolgus monkey brain medulla after 75 mins postinjection; format: ADME, organism-based, Macaca fascicularis; details: in vivo, 1.25 h
Putamen [33] = assay: Drug uptake in anesthetized cynomolgus monkey brain putamen after 12.5 mins postinjection; format: ADME, organism-based, Macaca fascicularis; design: unit not given here; details: in vivo
Caudate [34] = assay: Drug uptake in anesthetized cynomolgus monkey brain caudate after 18.5 mins postinjection; format: ADME, organism-based, Macaca fascicularis, Caudate nucleus; details: in vivo
Pons [35] = assay: Drug uptake in anesthetized cynomolgus monkey brain pons after 2.5 mins postinjection; format: ADME, organism-based, Macaca fascicularis; details: in vivo
Midbrain [36] = assay: Drug uptake in anesthetized cynomolgus monkey brain midbrain after 235 mins postinjection; format: ADME, organism-based, Macaca fascicularis; details: in vivo
Putamen [37] = assay: Drug uptake in anesthetized cynomolgus monkey brain putamen after 45 mins postinjection; format: ADME, organism-based, Macaca fascicularis; design: unit not given here; details: in vivo, 0.75 h
Putamen [38] = assay: Drug uptake in anesthetized cynomolgus monkey brain putamen after 235 mins postinjection; format: ADME, organism-based, Macaca fascicularis; details: in vivo
[39] = Ratio of drug uptake in occipital lobe to cerebellum in anesthetized cynomolgus monkey after 12.5 mins postinjection; format: ADME, organism-based, Macaca fascicularis; details: in vivo
[40] = Ratio of drug uptake in caudate to cerebellum in anesthetized cynomolgus monkey after 65 mins postinjection; format: ADME, organism-based, Macaca fascicularis; details: in vivo
Midbrain [41] = assay: Drug uptake in anesthetized cynomolgus monkey brain midbrain after 15.5 mins postinjection; format: ADME, organism-based, Macaca fascicularis; design: unit not given here; details: in vivo
[42] = Drug uptake in anesthetized cynomolgus monkey brain cerebellum after 85 mins postinjection; format: ADME, organism-based, Macaca fascicularis; details: in vivo
Thalamus [43] = assay: Drug uptake in anesthetized cynomolgus monkey brain thalamus after 85 mins postinjection; format: ADME, organism-based, Macaca fascicularis; design: unit not given here; details: in vivo
Thalamus [44] = assay: Drug uptake in anesthetized cynomolgus monkey brain thalamus after 3.5 mins postinjection; format: ADME, organism-based, Macaca fascicularis; design: unit not given here; details: in vivo
Putamen [45] = assay: Drug uptake in anesthetized cynomolgus monkey brain putamen after 9.5 mins postinjection; format: ADME, organism-based, Macaca fascicularis; design: unit not given here; details: in vivo
Caudate [46] = assay: Drug uptake in anesthetized cynomolgus monkey brain caudate after 75 mins postinjection; format: ADME, organism-based, Macaca fascicularis, Caudate nucleus; details: in vivo, 1.25 h
[47] = Ratio of drug uptake in frontal lobe to cerebellum in anesthetized cynomolgus monkey after 125 mins postinjection; format: ADME, organism-based, Macaca fascicularis; details: in vivo
Putamen [48] = assay: Drug uptake in anesthetized cynomolgus monkey brain putamen after 27.5 mins postinjection; format: ADME, organism-based, Macaca fascicularis; design: unit not given here; details: in vivo
[49] = Ratio of drug uptake in putamen to cerebellum in anesthetized cynomolgus monkey after 75 mins postinjection; format: ADME, organism-based, Macaca fascicularis; details: in vivo, 1.25 h
[50] = Drug uptake in anesthetized cynomolgus monkey brain frontal lobe after 35 mins postinjection; format: ADME, organism-based, Macaca fascicularis; details: in vivo
Medulla [51] = assay: Drug uptake in anesthetized cynomolgus monkey brain medulla after 12.5 mins postinjection; format: ADME, organism-based, Macaca fascicularis; details: in vivo
Midbrain [52] = assay: Drug uptake in anesthetized cynomolgus monkey brain midbrain after 45 mins postinjection; format: ADME, organism-based, Macaca fascicularis; design: unit not given here; details: in vivo, 0.75 h
Putamen [53] = assay: Drug uptake in anesthetized cynomolgus monkey brain putamen after 35 mins postinjection; format: ADME, organism-based, Macaca fascicularis; design: unit not given here; details: in vivo
[54] = Ratio of drug uptake in midbrain to cerebellum in anesthetized cynomolgus monkey after 235 mins postinjection; format: ADME, organism-based, Macaca fascicularis; details: in vivo
Thalamus [55] = assay: Drug uptake in anesthetized cynomolgus monkey brain thalamus after 105 mins postinjection; format: ADME, organism-based, Macaca fascicularis; design: unit not given here; details: in vivo, 1.75 h
Caudate [56] = assay: Drug uptake in anesthetized cynomolgus monkey brain caudate after 95 mins postinjection; format: ADME, organism-based, Macaca fascicularis, Caudate nucleus; details: in vivo
Pons [57] = assay: Drug uptake in anesthetized cynomolgus monkey brain pons after 1.5 mins postinjection; format: ADME, organism-based, Macaca fascicularis; details: in vivo, 0.025 h
Midbrain [58] = assay: Drug uptake in anesthetized cynomolgus monkey brain midbrain after 12.5 mins postinjection; format: ADME, organism-based, Macaca fascicularis; design: unit not given here; details: in vivo
[59] = Drug uptake in anesthetized cynomolgus monkey brain frontal lobe after 85 mins postinjection; format: ADME, organism-based, Macaca fascicularis; details: in vivo
[60] = Ratio of drug uptake in medulla to cerebellum in anesthetized cynomolgus monkey after 85 mins postinjection; format: ADME, organism-based, Macaca fascicularis; details: in vivo
[61] = Drug uptake in anesthetized cynomolgus monkey brain occipital lobe after 18.5 mins postinjection; format: ADME, organism-based, Macaca fascicularis; details: in vivo
[62] = Drug uptake in anesthetized cynomolgus monkey brain frontal lobe after 9.5 mins postinjection; format: ADME, organism-based, Macaca fascicularis; details: in vivo
Midbrain [63] = assay: Drug uptake in anesthetized cynomolgus monkey brain midbrain after 0.5 mins postinjection; format: ADME, organism-based, Macaca fascicularis; design: unit not given here; details: in vivo

Compound: O=C(OCCC[18F])C1C2CCC(CC1c1cccc(/C=C\Br)c1)N2 (stereo not drawn)
- Ratio [1]: 1.8
- logD [2]: 1.87
- Drug uptake (Putamen [3]): 4.58
- Drug uptake [4]: 1.87
- Drug uptake (Pons [5]): 4.85
- Drug uptake (Medulla [6]): 2.91
- Ratio [7]: 0.8
- Drug uptake [8]: 3.7
- Drug uptake [9]: 5.03
- Ratio [10]: 1.4
- Drug uptake [11]: 3.74
- Ratio [12]: 1.5
- Drug uptake (Thalamus [13]): 5.49
- Drug uptake (Thalamus [14]): 3.52
- Drug uptake (Putamen [15]): 5.78
- Ratio [16]: 1.7
- Drug uptake (Thalamus [17]): 5.33
- Drug uptake (Pons [18]): 5.08
- Drug uptake (Putamen [19]): 5.28
- Drug uptake (Midbrain [20]): 6.07
- Ratio [21]: 1
- Drug uptake (Caudate [22]): 4.9
- Drug uptake [23]: 3.8
- Drug uptake [24]: 2.1
- Drug uptake (Caudate [25]): 3.46
- Drug uptake (Thalamus [26]): 0.34
- Ratio [27]: 0.8
- Drug uptake (Midbrain [28]): 0.48
- Drug uptake [29]: 2.85
- Ratio [30]: 1.2
- Drug uptake [31]: 3.67
- Drug uptake (Medulla [32]): 5.49
- Drug uptake (Putamen [33]): 5.25
- Drug uptake (Caudate [34]): 4.53
- Drug uptake (Pons [35]): 0.9
- Drug uptake (Midbrain [36]): 4.33
- Drug uptake (Putamen [37]): 6.05
- Drug uptake (Putamen [38]): 3.27
- Ratio [39]: 0.7
- Ratio [40]: 1.2
- Drug uptake (Midbrain [41]): 5.7
- Drug uptake [42]: 3.83
- Drug uptake (Thalamus [43]): 5.27
- Drug uptake (Thalamus [44]): 1.89
- Drug uptake (Putamen [45]): 5.12
- Drug uptake (Caudate [46]): 5.17
- Ratio [47]: 0.9
- Drug uptake (Putamen [48]): 5.95
- Ratio [49]: 1.4
- Drug uptake [50]: 3.74
- Drug uptake (Medulla [51]): 5.82
- Drug uptake (Midbrain [52]): 6.06
- Drug uptake (Putamen [53]): 6.11
- Ratio [54]: 2.3
- Drug uptake (Thalamus [55]): 5.06
- Drug uptake (Caudate [56]): 5.03
- Drug uptake (Pons [57]): 0.38
- Drug uptake (Midbrain [58]): 5.24
- Drug uptake [59]: 3.32
- Ratio [60]: 1.4
- Drug uptake [61]: 4.35
- Drug uptake [62]: 3.19
- Drug uptake (Midbrain [63]): 0.01
